# “And” between values parts separate entries of the source, which are not always exact repeats. Equal entries are not always repeated.
# Target: Glutamate receptor ionotropic, NMDA 1 (Rattus norvegicus, UniProt P35439)
structure (smiles),measurement,value
CC1(C2(C)COC(c3ccccc3)(c3ccccc3)O2)CCCCN1 (stereo unspecified) [CAS_4792-18-1],Ki,2.22 µM and 2.34 µM and > 10 µM and 3.79 µM
